We go through five compounds from ChEMBL document CHEMBL4011592, “Synthesis and evaluation of 7-substituted-5,6-dihydrobenzo[c]acridine derivatives as new c-KIT promoter G-quadruplex binding ligands” (Eur J Med Chem, 2017).

The species named for data set [1] is Homo sapiens. Briefly: Binding affinity to c-KIT G-quadruplex DNA in human K562 cells assessed as reduction in c-KIT mRNA level at 0.5 uM after 48 hrs by RT-PCR analysis. The data set is classed as cell-based.
In data set [2] the test system is K562. Nature of the data set: Effect on total c-KIT protein level in human K562 cells at 9 uM after 48 hrs by Western blot analysis. The data set is classed as ADME, cell-based. Particulars: k562, 48 h. On the technique in general: A western blot detects proteins with antibodies after separation by electrophoresis.
Data set [3] is filed under the species Homo sapiens. Briefly: Binding affinity to c-KIT G-quadruplex DNA in human K562 cells assessed as reduction in c-KIT mRNA level at 9 uM after 48 hrs by RT-PCR analysis relative to control. Format: cell-based. The arrangement: scale not given: the % may be the effect or the level left.
Data set [4] in a line: Binding affinity to 5'-FAM/3'-TAMARA labelled c-KIT2 G-quadruplex DNA (unknown origin) assessed as change in melting temperature at 1 uM by FRET assay.
The next data set concerns A549. Nature of the data set: Cytotoxicity against human A549 cells after 48 hrs by MTT assay. Particulars: A549, 48 h. Format: functional, cell-based. (In general: Tetrazolium dyes change colour on reduction, which living cells bring about.)
The subject of data set [5] is K562. Briefly: Induction of apoptosis in human K562 cells assessed as increase in Bad expression after 48 hrs by Western blot analysis. Format: functional, cell-based.
The subject of data set [6] is K562. Nature of the data set: Induction of apoptosis in human K562 cells assessed as increase in Bax expression after 48 hrs by Western blot analysis. Format: functional, cell-based.
The test system of data set [7] is K562. Nature of the data set: Induction of apoptosis in human K562 cells assessed as increase in late apoptotic cells after 48 hrs by flow cytometric method. The data set is classed as functional, cell-based. On the technique in general: A flow cytometer gives signals particle by particle.
Data set [8] is described as follows: Binding affinity to 5'-FAM labelled c-KIT1 G-quadruplex DNA (unknown origin) by microscale thermophoresis.
Data set [9] can be described thus: Binding affinity to c-KIT1 G-quadruplex DNA (unknown origin) assessed as 1:1 binding stoichiometry between compound and G-quadruplex DNA by Job's plot method.
A short description of data set [10]: Binding affinity to c-KIT1 G-quadruplex DNA (unknown origin) assessed as maintainance of parallel c-KIT G-quadruplex conformation at 5 uM in presence of KCl measured after 10 mins by CD-spectroscopic analysis.
A further data set relates to BJ. Nature of the data set: Cytotoxicity against human BJ cells after 48 hrs by MTT assay. Format: cell-based.
The species named for data set [11] is Homo sapiens. Briefly: Binding affinity to c-KIT G-quadruplex DNA in human K562 cells assessed as reduction in c-KIT mRNA level after 48 hrs by RT-PCR analysis. The data set is classed as cell-based.
Data set [12] can be described thus: Binding affinity to c-KIT1 G-quadruplex DNA (unknown origin) assessed as hyperchromicity at 10 uM measured after 10 mins by UV-vis spectroscopic method.
Data set [13] is filed under the species Homo sapiens. Briefly: Binding affinity to c-KIT G-quadruplex DNA in human K562 cells assessed as reduction in c-KIT protein level after 48 hrs by Western blot analysis. The data set is classed as cell-based.
Data set [14] can be described thus: Binding affinity to 5'-FAM/3'-TAMARA labelled c-KIT1 G-quadruplex DNA (unknown origin) assessed as change in melting temperature at 2 uM by FRET assay.
Data set [15] concerns K562. Briefly: Cytotoxicity against human K562 cells after 48 hrs by MTT assay. Particulars: K562, 48 h. The data set is classed as functional, cell-based.
Data set [16] is described as follows: Binding affinity to 5'-FAM/3'-TAMARA labelled c-KIT1 G-quadruplex DNA (unknown origin) assessed as change in melting temperature at 2 uM in presence ds26 DNA by FRET assay.
Data set [17] can be described thus: Selectivity ratio of Kd for biotinylated duplex DNA (unknown origin) to Kd for biotinylated c-KIT1 G-quadruplex DNA (unknown origin).
The test system of data set [18] is K562. Briefly: Induction of apoptosis in human K562 cells assessed as late apoptotic cells at 6 uM after 48 hrs by flow cytometric method (reference value: 0.1 %). Format: functional.
Data set [19] concerns K562. Briefly: Induction of apoptosis in human K562 cells assessed as upregulation of cleaved caspase-3 at 1 to 9 uM after 48 hrs by Western blot analysis. Format: functional, cell-based.
The next data set has as its system HeLa. Briefly: Cytotoxicity against human HeLa cells after 48 hrs by MTT assay. The data set is classed as functional, cell-based.
Data set [20] relates to K562. Briefly: Cytotoxicity against human K562 cells expressing c-KIT measured up to 3 days by Annexin V-FITC/propidium iodide staining based assay. The data set is classed as functional, cell-based.
Data set [21] is described as follows: Binding affinity to 5'-FAM labelled duplex DNA (unknown origin) by microscale thermophoresis.
Data set [22] can be described thus: Binding affinity to biotinylated duplex DNA (unknown origin) by SPR assay.
Data set [23] can be described thus: Binding affinity to c-KIT2 G-quadruplex DNA (unknown origin) assessed as ability to promote c-KIT G-rich sequences to form parallel G-quadruplex at 25 uM in absence of KCl measured after 10 mins by CD-spectroscopic analysis.
Data set [24] has as its system K562. Nature of the data set: Induction of apoptosis in human K562 cells assessed as increase in cleaved PARP level at 1 to 9 uM after 48 hrs by Western blot analysis. Format: functional, cell-based.
Data set [25] in a line: Binding affinity to c-KIT1 G-quadruplex DNA (unknown origin) measured after 10 mins by UV-vis spectroscopic method.
The nature of data set [26]: Binding affinity to c-KIT1 G-quadruplex DNA (unknown origin) assessed as 1:1 binding stoichiometry between compound and G-quadruplex DNA 10 uM by ESI-MS spectra analysis.
The nature of data set [27]: Binding affinity to c-KIT1 G-quadruplex DNA (unknown origin) assessed as hyperchromicity at 5 uM measured after 10 mins by fluorescence spectroscopic method.
Data set [28] can be described thus: Binding affinity to c-KIT1 G-quadruplex DNA (unknown origin) assessed as ability to promote c-KIT G-rich sequences to form parallel G-quadruplex at 25 uM in absence of KCl measured after 10 mins by CD-spectroscopic analysis.
Data set [29] is described as follows: Binding affinity to c-KIT1 G-quadruplex DNA (unknown origin) assessed as isosbestic point at 10 uM measured after 10 mins by UV-vis spectroscopic method.
A short description of data set [30]: Binding affinity to F10T duplex DNA (unknown origin) assessed as change in melting temperature at 2 uM by FRET assay.
The test system of data set [31] is K562. Briefly: Induction of apoptosis in human K562 cells assessed as late apoptotic cells at 1 uM after 48 hrs by flow cytometric method (reference value: 0.1 %). Format: functional.
Data set [32] in a line: Binding affinity to c-KIT1 G-quadruplex DNA (unknown origin) assessed as red shift at 10 uM measured after 10 mins by UV-vis spectroscopic method.
The nature of data set [33]: Binding affinity to F10T duplex DNA (unknown origin) assessed as change in melting temperature at 1 uM by FRET assay.
Data set [34] in a line: Binding affinity to 5'-FAM/3'-TAMARA labelled c-KIT1 G-quadruplex DNA (unknown origin) assessed as change in melting temperature at 1 uM by FRET assay.
Data set [35] relates to K562. Briefly: Induction of apoptosis in human K562 cells assessed as decrease in Bcl-2 expression at 1 to 9 uM after 48 hrs by Western blot analysis. Format: functional, cell-based.
The subject of data set [36] is K562. Nature of the data set: Induction of apoptosis in human K562 cells assessed as late apoptotic cells at 3 uM after 48 hrs by flow cytometric method (reference value: 0.1 %). Format: functional.
Data set [37] concerns K562. Nature of the data set: Induction of apoptosis in human K562 cells assessed as late apoptotic cells at 9 uM after 48 hrs by flow cytometric method (reference value: 0.1 %). Format: functional.
The nature of data set [38]: Binding affinity to biotinylated c-KIT1 G-quadruplex DNA (unknown origin) by SPR assay.
A short description of data set [39]: Binding affinity to c-KIT2 G-quadruplex DNA (unknown origin) assessed as maintainance of parallel c-KIT G-quadruplex conformation at 5 uM in presence of KCl measured after 10 mins by CD-spectroscopic analysis.

Activity calls are given as the source filed them. No cut-off for these calls is given here.

Consider `Cc1ccc(NC(=O)c2ccc(CN3CCN(C)CC3)cc2)cc1Nc1nccc(-c2cccnc2)n1`, for which the result in the data set filed under Homo sapiens [1] was inactive.
In the case of `CCN(CC)CCCNc1c2c(nc3ccccc13)-c1cc(OC)c(OC)cc1CC2`, the Activity result in the data set on K562 [2] is “Non-Toxic”; in the data set listed under Homo sapiens [3] it was 52%; with K562 [5] it was “Dose-dependent effect”; in the data set with K562 [6] it was “Dose-dependent effect”; in the data set with K562 [7] it was “Dose-dependent effect”; in the data set listed under Homo sapiens [11], “Dose-dependent effect”. The Activity result is “Dose-dependent effect” in the data set listed under Homo sapiens [13]; 8.4% in the data set on K562 [18]; “Dose-dependent effect” with K562 [20]; 1.8% with K562 [31]; 3.6% in the data set on K562 [36]; 64.8% in the data set on K562 [37]. Further, the ΔTm (commonly the change in melting temperature against a reference sample) in [4] is 5.4 °C; in data set [14] it was 15.9 °C; in data set [30], 1.2 °C; in [33], 0.6 °C; in [34], 11.9 °C. For the same compound, the IC50 (commonly the midpoint of a concentration-inhibition curve) in the data set with A549 amounted to 5.7 µM; in the data set with BJ, 29.4 µM; with K562 [15], 9.2 µM; in the data set with HeLa, 3.2 µM. Besides, the Kd (as a rule, the equilibrium constant for the complex coming apart) in data set [8] was 1.5 µM; in data set [21] it was 10.5 µM; in data set [22], above 20 µM; in [25], 3.3 µM; in data set [38], 4.7 µM. For the same compound, the outcome (in data set [9]; in [10]; in data set [12]; in [16]; with K562 [19]; in data set [23]) was Active. Also, the result (in the data set with K562 [24]; in data set [26]; in [27]; in [28]; in [29]; in [32]) was Active. Further, the outcome (in the data set with K562 [35]; in [39]) was Active. Besides, in [17], the Selectivity ratio was above 4.3.
On to `COc1cc2c(cc1OC)-c1c(c(NCCN(C)C)c3ccccc3[n+]1C)CC2`, for which the ΔTm in data set [4] was 2.8 °C; in [14] it was 7.4 °C; in data set [30], 0.3 °C; in data set [33] it was 0.8 °C; in data set [34] it was 6.7 °C. Further, the IC50 is above 50 µM in the data set with A549, above 50 µM with BJ, 33.5 µM in the data set on K562 [15] and above 50 µM in the data set with HeLa. Further, in data set [16], the result was Active. Also, the Selectivity ratio in [17] was above 2.5. In addition, the equilibrium dissociation constant (Kd) in data set [22] was above 20 µM; in data set [38] it was 8 µM.
Turning to `COc1cc2c(cc1OC)-c1c(c(NCCN3CCCC3)c3ccccc3[n+]1C)CC2`, the ΔTm stood at 3.7 °C in data set [4]; 11.3 °C in data set [14]; 0.4 °C in data set [30]; 0.9 °C in [33]; 7.7 °C in [34]. Moreover, the IC50 is 36 µM with A549, 36 µM in the data set with BJ, above 50 µM in the data set on K562 [15] and 44.3 µM in the data set on HeLa. Also, the outcome in data set [16] was Active. Besides, the Selectivity ratio in data set [17] was above 9.1. In addition, the Kd in data set [22] was above 20 µM; in data set [38], 2.2 µM.
As for `CCN(CC)CCCNc1c2c([n+](C)c3ccccc13)-c1cc(OC)c(OC)cc1CC2`, the ΔTm in data set [4] stood at 3.6 °C; in data set [14] it was 10.8 °C; in data set [30], 0.4 °C; in [33] it was 0.9 °C; in data set [34], 7.5 °C. For the same compound, the IC50 in the data set with A549 was above 50 µM; with BJ, above 50 µM; in the data set on K562 [15] it was 37.1 µM; with HeLa, above 50 µM. Besides, the result in [9], in data set [10], in [12], in [16], in data set [23] and in data set [26] was Active. Further, the outcome in data set [27], in data set [28], in [29], in [32] and in data set [39] was Active. For the same compound, the Selectivity ratio in data set [17] was above 2.7. For the same compound, the values for the Kd in data set [22], in [25] and in [38] were above 20 µM, 9.1 µM and 7.4 µM, respectively.
